Some results are limits rather than exact numbers.

In patent US12492197B2, “3,5-disubstituted pyrazole compounds as kinase inhibitors and uses thereof” (IMPACT THERAPEUTICS (SHANGHAI), INC, priority 2019, dated 2025) one finds inhibition and IC50 data, which are given here for 18 compounds.

The target of assay [1] is T1, CHK1 kinase (Homo sapiens, UniProt O14757).
T1 construct: purchased Promega V1941
T1 sequence (O14757 1-476): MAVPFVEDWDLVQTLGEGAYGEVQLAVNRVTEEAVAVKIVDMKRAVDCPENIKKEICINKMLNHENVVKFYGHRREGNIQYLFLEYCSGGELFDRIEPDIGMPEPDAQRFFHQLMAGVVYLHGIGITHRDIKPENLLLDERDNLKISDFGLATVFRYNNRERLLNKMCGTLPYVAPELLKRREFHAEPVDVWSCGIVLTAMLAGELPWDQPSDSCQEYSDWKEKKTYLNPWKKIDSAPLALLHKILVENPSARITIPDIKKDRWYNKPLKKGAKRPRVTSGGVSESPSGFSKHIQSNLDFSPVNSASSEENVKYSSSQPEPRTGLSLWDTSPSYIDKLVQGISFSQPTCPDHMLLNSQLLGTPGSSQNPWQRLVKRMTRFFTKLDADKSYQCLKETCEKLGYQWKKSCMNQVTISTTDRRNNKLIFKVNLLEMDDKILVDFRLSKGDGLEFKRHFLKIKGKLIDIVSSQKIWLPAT
Description: CHK1 kinase inhibition, ADP-Glo kinase assay. The class given is biochemical. Conditions: ATP 10 μM, CHK1 1 ng/well; for inhibition at 0.01 µM: compound concentration 10 nM, read-out: Inh % (inhibitory effect on CHK1 kinase activity); for IC50: read-out: IC50 (inhibitory effect on CHK1 kinase activity). The method, then:
2 μL of kinase CHK1 (#V1941, Promega), 1 μL of compound diluted with buffer, and 2 μL of ATP substrate was successively added to a 384-well plate (final concentration of CHK1 was 1 ng/well, ATP was 10 μM). The positive control wells contained CHK1, ATP and DMSO whereas the negative control wells contained ATP, DMSO without enzyme. The mixtures were centrifuged at 1000 rpm for 1 minute and kept in darkness at room temperature for 1 hour to react. Then, 5 μL of ADP-Glo reagent was added to each well and incubated at room temperature for 40 minutes. At the end of incubation, 10 μL of kinase detection reagent was added to each well, and the relative chemiluminescence values (RLU) were measured on Varioskan® Flash (Thermo). The following calculation was performed: Inhibition rate %=(RLU of positive control−RLU of compound)/(RLU of positive control−RLU of negative control)×100. Data were analyzed using GraphPad Prism6.0 and fitted using the curve equation: Y=Bottom+(Top-Bottom)/(1+10^((Log IC50−X)*HillSlope)), and IC50 values were calculated.
A general note: ADP-Glo first removes unused ATP, then detects ADP through luciferase.

The test system of assay [2] is human colon cancer cell LoVo. In words: Proliferation of LoVo cells, MTT assay. The class given is cell-based. The following applies: 96 h, 4 days treatment, read-out: IC50 (inhibition of proliferation of LoVo). The method, then: Newly revived LoVo cells (purchased from Shanghai Cell Institute) were cultured and passaged for at least three generations before use. Cells were used at 90% confluence for experiment. Cells were digested with trypsinase and centrifuged at 800 rpm for 5 minutes and the supernatant was discarded. The cell pellets were resuspended in fresh RPMI1640 medium and counted. Cells were seeded on 96-well cell culture plates at 5000 cells/well and incubated overnight at 37° C., 5% CO2. The stock solutions of the test substances (including the test compounds and the reference compound) were serially diluted to 8 concentrations with DMSO at a ratio of 1:3. 5 μL of each series diluted solutions was added to 120 μL of medium (diluted by 25 times) and mixed by shaking. […] The cell culture plates were returned to incubator at 37° C. and 5% CO2 for 4 days. At the end of treatment, the cell viability was determined by MTT colorimetric assay. Cell culture medium in each well was replaced by 100 μL/well of serum-free DMEM medium containing MTT (0.5 mg/mL), and the culture was continued for additional 4 hours. Medium was then discarded and 100 μL/well of DMSO was added.
(§1) Data was analyzed by GraphPad Prism 6.0. The inhibitory effects of compounds on cell proliferation were plotted based on cell viability vs. the logarithm of compound concentration. Cell viability %=(ODcompound−ODbackground)/(ODDMSO−ODbackground)×100.
In general terms: Formazan colour is commonly taken as a measure of viable cells.

Assay [3] relates to human breast cancer cell HCC1806. Description: Proliferation of HCC1806 cells, MTT assay. Format: cell-based. The following applies: HCC1806, 72 h, 3 days treatment, read-out: IC50 (inhibition of proliferation of HCC1806). The method, then: Newly revived HCC1806 cells (purchased from Guangzhou Genio) were cultured and passaged for at least three generations before use. Cells were used at 90% confluency for experiments. Cells were digested with trypsinase and centrifuged at 800 rpm for 5 minutes. The cell pellets were resuspended in fresh RPMI1640 medium and cells were counted. Cells were seeded on 96-well cell culture plates at 2000 cells/well and incubated overnight at 37° C., 5% CO2. The stock solutions of the test substances (including the test compounds and the reference compound) were serially diluted to 8 concentrations with DMSO at a ratio of 1:3. Five μL of each of the serially diluted solutions were added to 120 μL of medium (diluted by 25 times) and mixed by shaking. […] The cell culture plates were returned to incubator at 37° C., 5% CO2 for 3 days. At the end of treatment the cell viability was determined by MTT colorimetric assay. Cell culture medium in each well was replaced by 100 μL/well of serum-free fresh medium containing MTT (0.5 mg/mL), and the culture was continued for additional 4 hours.
as §1

On to `COc1cccc(OC[C@@H]2CNCCN2C)c1-c1cc(Nc2cnc(C#N)cn2)n[nH]1` [Example 11, (S)-5-((5-(2-methoxy-6-((1-methylpiperazin-2-yl)methoxy)phenyl)-1H-pyrazol-3-yl)amino)pyrazine-2-carbonitrile], for which the inhibition at 0.01 µM in assay [1] is 4.9%. For the same compound, the IC50 in assay [2] and in assay [3] was above 1000 nM each time.

For `COc1cc(F)cc(OC[C@@H]2CNCCS2)c1-c1cc(Nc2cnc(C#N)cn2)n[nH]1` [Example 77-A, (S)-5-((5-(4-fluoro-2-methoxy-6-(thiomorpholin-2-ylmethoxy)phenyl)-1H-pyrazol-3-yl)amino)pyrazine-2-carbonitrile], the IC50 in assay [2] is 3.1 nM; in assay [3], 3.6 nM.

Regarding `COc1cccc(OC[C@H]2CCCNC2)c1-c1cc(Nc2cnc(C#N)c(C)n2)n[nH]1` [Example 28, (S)-5-((5-(2-methoxy-6-(piperidin-3-ylmethoxy)phenyl)-1H-pyrazol-3-yl)amino)-3-methylpyrazine-2-carbonitrile], the values for the IC50 in assay [1], in assay [2] and in assay [3] were 0.3 nM, 42.5 nM and 42.2 nM, respectively.

For the compound `COc1cnc(Nc2cc(-c3c(OC)cccc3OC[C@H]3CCCNC3)[nH]n2)cn1` [Example 26, (S)-5-methoxy-N-(5-(2-methoxy-6-(piperidin-3-ylmethoxy)phenyl)-1H-pyrazol-3-yl)pyrazin-2-amine], in assay [1], the inhibition at 0.01 µM was determined as 93%. The IC50 in assay [2] is 103 nM; in assay [3], 118 nM.

For the compound `N#Cc1cnc(Nc2cc(-c3c(O)cccc3OC[C@H]3CCCNC3)[nH]n2)cn1` [Example 48, (S)-5-((5-(2-hydroxy-6-(piperidin-3-ylmethoxy)phenyl)-1H-pyrazol-3-yl)amino)pyrazine-2-carbonitrile], the figures for the IC50 in assay [1], in assay [2] and in assay [3] were 0.58 nM, 5.4 nM and 6.5 nM, respectively.

Consider `COc1cccc(OC[C@H]2COCCN2)c1-c1cc(Nc2cnc(C#N)cn2)n[nH]1` [Example 7, (R)-5-((5-(2-methoxy-6-(morpholin-3-ylmethoxy)phenyl)-1H-pyrazol-3-yl)amino)pyrazine-2-carbonitrile], for which, in assay [1], the inhibition at 0.01 µM came out at 95%. Also, the IC50 in assay [2] worked out at 30.1 nM; in assay [3], 37.6 nM.

Take `COc1cccc(OC[C@H]2CCCOC2)c1-c1cc(Nc2cnc(C#N)cn2)n[nH]1` [Example 34, (S)-5-((5-(2-methoxy-6-((tetrahydro-2H-pyran-3-yl)methoxy)phenyl)-1H-pyrazol-3-yl)amino)pyrazine-2-carbonitrile]: the inhibition at 0.01 µM in assay [1] amounted to 69%. The IC50 in assay [2] was found to be 64.9 nM; in assay [3] it was 102 nM.

Consider `COc1cccc(OC[C@@H]2CNCCN2)c1-c1cc(Nc2cnc(C#N)cn2)n[nH]1` [Example 10, (S)-5-((5-(2-methoxy-6-(piperazin-2-ylmethoxy)phenyl)-1H-pyrazol-3-yl)amino)pyrazine-2-carbonitrile], for which, in assay [1], the inhibition at 0.01 µM was 95%. Besides, the IC50 turned out to be 23 nM in assay [2] and 24.8 nM in assay [3].

For the compound `Cc1cc(F)c(-c2cc(Nc3cnc(C#N)cn3)n[nH]2)c(OC[C@@H]2CNCCO2)c1` [Example 64, (S)-5-((5-(2-fluoro-4-methyl-6-(morpholin-2-ylmethoxy)phenyl)-1H-pyrazol-3-yl)amino)pyrazine-2-carbonitrile], the IC50 in assay [2] stood at 323 nM; in assay [3], 676 nM.

Regarding `COc1cccc(OC[C@H]2CCCNC2)c1-c1cc(Nc2ncc(C#N)nc2C)n[nH]1` [Example 29, (S)-5-((5-(2-methoxy-6-(piperidin-3-ylmethoxy)phenyl)-1H-pyrazol-3-yl)amino)-6-methylpyrazine-2-carbonitrile], the IC50 in assay [2] and in assay [3] was above 1000 nM in each case.

As for `COc1cc(F)cc(OCC2CNCCC2(C)C)c1-c1cc(Nc2cnc(C#N)cn2)n[nH]1` (stereo not shown) [Example 50, 5-((5-(2-((4,4-dimethylpiperidin-3-yl)methoxy)-4-fluoro-6-methoxyphenyl)-1H-pyrazol-3-yl)amino)pyrazine-2-carbonitrile], the IC50 in assay [2] was found to be 35.2 nM; in assay [3] it was 26.8 nM.

In the case of `COc1cc(C)cc(OCC2CNC2)c1-c1cc(Nc2cnc(C#N)cn2)n[nH]1` [Example 72, 5-((5-(2-(azetidin-3-ylmethoxy)-6-methoxy-4-methylphenyl)-1H-pyrazol-3-yl)amino)pyrazine-2-carbonitrile], the IC50 was 6 nM in assay [2] and 5.7 nM in assay [3].

As for `N#Cc1cnc(Nc2cc(-c3c(F)cc(Cl)cc3OC[C@@H]3CNCCO3)[nH]n2)cn1` [Example 58, (S)-5-((5-(4-chloro-2-fluoro-6-(morpholin-2-ylmethoxy)phenyl)-1H-pyrazol-3-yl)amino)pyrazine-2-carbonitrile], the IC50 in assay [2] was 913 nM; in assay [3], above 1000 nM.

In the case of `Cc1cc(F)c(-c2cc(Nc3cnc(C#N)cn3)n[nH]2)c(OCC2CNC2)c1` [Example 61, 5-((5-(2-(azetidin-3-ylmethoxy)-6-fluoro-4-methylphenyl)-1H-pyrazol-3-yl)amino)pyrazine-2-carbonitrile], the IC50 amounted to 97 nM in assay [2] and 111 nM in assay [3].

For `N#Cc1cnc(Nc2cc(-c3c(F)cc(Br)cc3OC[C@@H]3CNCCO3)[nH]n2)cn1` [Example 60, (S)-5-((5-(4-bromo-2-fluoro-6-(morpholin-2-ylmethoxy)phenyl)-1H-pyrazol-3-yl)amino)pyrazine-2-carbonitrile], the IC50 in assay [2] was 554 nM; in assay [3], above 1000 nM.

For `COc1cc(F)cc(OC[C@H]2CNCCS2)c1-c1cc(Nc2cnc(C#N)cn2)n[nH]1` [Example 77-B, (R)-5-((5-(4-fluoro-2-methoxy-6-(thiomorpholin-2-ylmethoxy)phenyl)-1H-pyrazol-3-yl)amino)pyrazine-2-carbonitrile], the IC50 was found to be 17.3 nM in assay [2] and 16.7 nM in assay [3].

For the compound `CCc1cc(OC)c(-c2cc(Nc3cnc(C#N)cn3)n[nH]2)c(OC[C@H]2CCCNC2)c1` [Example 75, (S)-5-((5-(4-ethyl-2-methoxy-6-(piperidin-3-ylmethoxy)phenyl)-1H-pyrazol-3-yl)amino)pyrazine-2-carbonitrile], the IC50 stood at 3.2 nM in assay [2] and 3.1 nM in assay [3].

Turning to `COc1cccc(OC[C@H]2CCCNC2)c1-c1[nH]nc(Nc2cnc(C#N)cn2)c1C` [Example 51, (S)-5-((5-(2-methoxy-6-(piperidin-3-ylmethoxy)phenyl)-4-methyl-1H-pyrazol-3-yl)amino)pyrazine-2-carbonitrile], the IC50 in assay [2] and in assay [3] was above 1000 nM in each case.
